# Entries after “also recorded” stand apart in the source; their conditions may differ.
# Tests used:
# [1] = tested on: young female Wistar rats subjected to 90 min of MCAO (ischemic stroke); experiment: Experiment 2: long-term stroke outcome in young female rats; format: in vivo, rat; conditions: for Neurologic score: median±IQR, p=0.04 vs vehicle
# Protocol: (§1) The rats were fasted overnight for glucose control. On the surgery day, they were anesthetized with 5% isoflurane in 30% oxygen balanced with nitrogen. The trachea was orally intubated, and both lungs were mechanically ventilated to maintain normocapnia. Isoflurane was reduced to 1.5% during the surgical procedure. A 22-gauge needle thermistor was percutaneously inserted beneath the temporalis muscle adjacent to the skull. The pericranial temperature was maintained at 37.0° C.±0.2° C. by a surface heat lamp. The tail artery was cannulated with PE 50 tubing (BD Intramedic™ Polyethylene Tubing, Sparks, MD, USA), and arterial blood pressure was continuously monitored. 50 IU of heparin was given via arterial line to prevent intra-arterial thrombosis. Arterial blood samples were collected pre, during, and after ischemia for blood gas, glucose, and hematocrit measurements.
# (§2) Ischemic stroke was induced by transiently occluding the middle cerebral artery (MCAO) as previously reported.^23,24 Briefly, a midline cervical incision was made and the right common carotid artery […] was identified. The external and internal carotid arteries were dissected. […] The internal carotid artery (ICA) was dissected distally until the origin of the pterygopalatine artery was visualized. After surgical preparation, a 10 min interval was allowed for physiologic stabilization. […] The common carotid artery was re-opened, and a timer was started as the onset of cerebral ischemia.
# (§3) After 90 min of MCAO, the filament was removed and a PE-10 tube (BD Intramedic™ Polyethylene Tubing, Sparks, MD, USA) was inserted into the ICA beyond the origin of the pterygopalatine artery. The vehicle or BMX-001 (30-50 μg/kg) solution (1 μl/g for both solutions, 250 μl for the 250 g rat) was slowly infused for 5 minutes via syringe pump. At the completion of intra-carotid infusion, the PE tube was removed and the ECA stump was permanently ligated. The tail artery catheter was removed and both the neck incision and tail incision were infiltrated with bupivacaine and closed with suture. Isoflurane was discontinued. Rats were disconnected from the ventilator when they attained spontaneous respiration and kept in a recovery cage. The tracheas were extubated after recovery of the righting reflex. They were in an O2 enriched environment (30% O2) for 1 h and then returned to the home cage.
# (§4) Post-stroke neurologic deficits were assessed at day 7 and 28 using a standardized neurological scoring system.^27,28 General status, simple motor deficit, complex motor deficit, and sensory deficit were evaluated, including the ability of walking on a beam and climbing on the vertical screen. The total score each animal received was the sum of all four individual scores (0-48, 0=normal and 48=the worst score).
# Upon the completion of functional tests, the animals were weighed, anesthetized with isoflurane, and decapitated. The brains were harvested, frozen at −20° C. in 2-methylbutane on dry ice, and stored in a −80° C. freezer. Serial quadruplicate 20-μm-thick coronal sections were cut using a Leica cryostat and mounted on the slides at 720-μm interval over the rostral-caudal extent of the brain. The sections were dried on a slide heater at 36° C., and stained with hematoxylin and eosin. […] The area in each ROI (mm^2) was determined by automated counting of calibrated pixels and the volume (mm^3) was computed by the known interval between sections over the rostral-caudal extent of brain. […]
# [2] = tested on: young male spontaneously hypertensive rats (SHR) subjected to 90 min of MCAO; experiment: Experiment 4: stroke outcome in young spontaneously hypertensive rats; format: in vivo, rat; conditions: for Neurologic score: median±IQR
# Protocol: as §1, §2, §3, §4
# Upon the completion of functional tests, the animals were weighed, anesthetized with isoflurane, and decapitated. The brains were harvested, frozen at −20° C. in 2-methylbutane on dry ice, and stored in a −80° C. freezer. Serial quadruplicate 20-μm-thick coronal sections were cut using a Leica cryostat and mounted on the slides at 720-μm interval over the rostral-caudal extent of the brain. The sections were dried on a slide heater at 36° C., and stained with hematoxylin and eosin. A section from each […] interval was digitized with a video camera controlled by an image analyzer (MCID, the MicroComputer Imaging Device, Imaging Research Inc, St. Catharines, Ontario, Canada). […] With the observer blinded to the experimental condition, the following regions of interest (ROI) were outlined individually using an operator-controlled cursor, including non-infarcted ipsilateral cerebral cortex, non-infarcted ipsilateral subcortex, contralateral cerebral cortex, and contralateral subcortex. The area in each ROI (mm^2) was determined by automated counting of calibrated pixels and the volume (mm^3) was computed by the known interval between sections over the rostral-caudal extent of brain. […]
# [3] = Experiment 6: BMX-001 plasma and brain concentration measurement (LC/MS/MS); format: in vivo, rat
# Protocol: Young male Wistar rats (n=4) were subjected to 90 min of MCAO and 30 μg/kg of BMX-001 intra-carotid infusion following reperfusion. Blood and brain samples were harvested at 30 min after BMX-001 infusion, stored in −80° C. freezer, and measured using Liquid chromatography-tandem-mass spectroscopy (LC/MS/MS) analysis. Brain tissue was homogenized in water (1 g in 2 mL water). Then, […] or […], two Zr-silica beads (2.5 mm), […] 1% HFBA (heptafluorobutyric acid) in 30% acetonitrile/water+BMX-001-d8 (int. std.,50 nM), and […] of chloroform/isopropanol (4/1, v/v) was added to polypropylene tube and vigorously agitated in FastPrep (Thermo Savant) at speed 6 for 45 s, followed by centrifugation at 16,000 rcf for 5 min at room temperature. The […] aliquot of organic (lower) layer was transferred to polypropylene tube and evaporated to dryness by gentle stream of nitrogen. The dry residue was reconstituted into […] of mobile phase A, and […] injected into LC/MS/MS system. The LC/MS/MS analysis was performed on Agilent 1200 HPLC-AB/SCIEX 5500 QTrap MS/MS instrument. LC column: Phenomenex Kinetex 4×3 mm, C18 guard cartridge at 35° C.; mobile phase A: 0.05% HFBA, 10% acetonitrile, water; mobile phase B: 0.05% HFBA in acetonitrile; elution gradient: 0-1 min 0-70% B, 1-2 min 70% B, 2-2.1 min 70-100% B, 2.1-2.6 min 100% B, 2.6-2.7 min 100-0% B; run time: 4 min. MS/MS transitions: BMX-001 (3×HFBA) at m/z 857.3/599.7. Calibration samples in 2.4 (LOQ)—300 nM brain tissue or 0.47 (LOQ)—30 nM plasma concentration range were prepared by adding known amounts of BMX-001 into blank brain homogenate or plasma, and analyzed alongside study samples as a single analytical batch.
# blood brain barrier = experiment: Experiment 7: blood brain barrier permeability after intracarotid infusion (Evans blue content); conditions: non-stroke rats, vs vehicle
# Protocol: 30 μg/kg of BMX-001 (n=4), or same amount of saline (n=4) or mannitol (n=4) was given to normal male Wistar rats through the carotid artery. The rats received 100 μl 2% Evans blue intravenous infusion 30 min later and then intracardially perfused using 100 ml normal saline at 30 min following infusion. Brains were harvested and the Evans blue content was measured spectrophotometrically.
# [4] = 30 μg/kg intracarotid after 90 min MCAO, 30 min after infusion, n=4
smiles,measurement,setting,value
"CCCCOCC[n+]1ccccc1C1=C2C=CC3=[N+]2[Mn]24[n]5c1ccc5C(c1cccc[n+]1CCOCCCC)=C1C=CC(=[N+]12)C(c1cccc[n+]1CCOCCCC)=c1ccc([n]14)=C3c1cccc[n+]1CCOCCCC [BMX-001, MnTnBuOE-2-PyP^5+]",Neurologic score,[1]; 7 days post-stroke,11±7
same,Neurologic score,[1]; 28 days post-stroke,7±6
same,Infarct volume,"[1]; 28 days post-stroke, p=0.38 vs vehicle",157.378 ±63.699 mm^3
same,"Neurologic score (FIG. 2, Panel A), in words",[1]; day 7 and day 28 compared to the vehicle group,better neurologic score
same,"Infarct volumes (FIG. 2, Panel B), in words","[1]; day 28, no intragroup difference was detected",smaller
same,MAP,"[2]; 10 minutes post-stroke, SHR rats",83 ± 11 mmHg
same,"Infarct volume (FIG. 4, Panel C), in words",[2]; 28 days,no intra-group difference
same,Subcortex infarct volume,"[2]; 28 days, p=0.14",51±23 mm^3
same,Total infarct volume,"[2]; 28 days, p=0.21",179±51 mm^3
same,Cortex infarct volume,"[2]; 28 days, p=0.37",128±37 mm^3
same,Neurologic score,"[2]; day 7, p=0.05 vs vehicle",14±8
same,Neurologic score,"[2]; day 28, p=0.018 vs vehicle",9.5±6.25
same,"Neurological deficits (FIG. 4, Panel B), in words",[2]; day 28 post-stroke,significantly improved
same,Rats survived for 28 days,"[2]; of n=15, three BMX-001 rats died at 8, 9 and 10 days after stroke",12
same,BMX-001 content in contralateral brain hemisphere,[3]; [4],0.5 ± 0.3 nM
same,BMX-001 content in ipsilateral brain hemisphere,[3]; [4],7.4 ± 8.6 nM
same,BMX-001 content in plasma,[3]; [4],11.3 ± 1.2 nM
same,BMX-001 concentration at the site of brain injury relative to the contralateral hemisphere,[3]; direct intracarotid infusion,15 fold
same,"Evans blue content in brain / blood brain barrier permeability, in words",blood brain barrier,only somewhat higher Evans blue content; also recorded: did not affect the BBB
